The values below come from patent publication US20230086703A1, “N-(4-(5-chloropyridin-3-yl)phenyl)-2-(2-(cyclopropanesulfonamido)pyrimidin-4-yl) butanamide derivatives and related compounds as human CTPS1 inhibitors for the treatment of proliferative diseases” (Step Pharma S.A.S., priority 2019, published 2023).

pIC50: −log10 of the molar value.

The first assay deals with T1, human CTPS1 (Homo sapiens, UniProt P17812).
T1 construct: FLAG (with GG linker); His8 (with GG linker); purchased Proteros biostructures GmbH
T1 sequence (P17812 1-591): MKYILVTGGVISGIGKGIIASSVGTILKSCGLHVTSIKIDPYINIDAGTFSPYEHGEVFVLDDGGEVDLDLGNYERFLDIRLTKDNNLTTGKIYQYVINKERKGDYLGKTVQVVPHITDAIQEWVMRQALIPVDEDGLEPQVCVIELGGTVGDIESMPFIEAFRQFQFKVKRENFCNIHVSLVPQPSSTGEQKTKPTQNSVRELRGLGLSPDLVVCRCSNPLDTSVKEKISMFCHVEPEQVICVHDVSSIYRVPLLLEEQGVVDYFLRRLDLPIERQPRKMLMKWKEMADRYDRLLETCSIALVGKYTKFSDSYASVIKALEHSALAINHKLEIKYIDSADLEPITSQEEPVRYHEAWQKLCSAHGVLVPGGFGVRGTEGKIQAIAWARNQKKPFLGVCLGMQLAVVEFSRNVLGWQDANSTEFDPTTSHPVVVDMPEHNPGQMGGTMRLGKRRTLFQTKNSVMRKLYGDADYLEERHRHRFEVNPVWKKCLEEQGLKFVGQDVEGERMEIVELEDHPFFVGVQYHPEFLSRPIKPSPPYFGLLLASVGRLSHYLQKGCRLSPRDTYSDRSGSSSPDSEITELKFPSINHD
Description: Human CTPS1 enzyme inhibition, ADP-Glo Max assay. The following applies: ADP-Glo Max assay, human full length CTPS1; read-out: CTPS1 (Human CTPS1 Enzyme Inhibition data grouped by potency range, IC50). Format: biochemical. Summed up: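 Enzyme preincubated with compound for 10 min at 25 °C in 50 mM Tris pH 8.0, 10 mM MgCl2, 0.01% Tween-20, 2 mM L-cysteine. ATP-to-ADP conversion detected by ADP-Glo Max luminescence after 60 min depletion and 60 min development steps. Percentage inhibition calculated per concentration.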
For orientation: In ADP-Glo the light output rises with the ADP produced.
Turning to `CCOc1cncc(-c2ccc(NC(=O)C3(c4ccnc(NS(=O)(=O)C5CC5)n4)CCN(C(=O)OC(C)(C)C)CC3)nc2)n1` [P139, tert-butyl 4-(2-(cyclopropanesulfonamido)pyrimidin-4-yl)-4-((5-(6-ethoxypyrazin-2-yl)pyridin-2-yl)carbamoyl)piperidine-1-carboxylate], the pIC50 is above 7.00.

The same assay, now with this note: ADP-Glo Max assay; Table 10; read-out: Human CTPS1 Enzyme Inhibition, IC50 grouped by potency range (CTPS1).
Take `CC(C)(C)c1ccc(-c2ccc(NC(=O)Cc3csc(NS(=O)(=O)C4CC4)n3)cc2)cc1` [T243, N-(4′-(tert-butyl)-[1,1′-biphenyl]-4-yl)-2-(2-(cyclopropanesulfonamido)thiazol-4-yl)acetamide]: the pIC50 is 5.00 to 6.00. In the case of `COc1nccc(C)c1-c1ccc(NC(=O)C(C)(C)c2csc(NS(=O)(=O)C3CC3)n2)cc1` [T250, 2-(2-(cyclopropanesulfonamido)thiazol-4-yl)-N-(4-(2-methoxy-4-methylpyridin-3-yl)phenyl)-2-methylpropanamide], the pIC50 is 5.00 to 6.00. Turning to `CCOc1cncc(-c2ccc(NC(=O)C(C)(C)c3csc(NS(=O)(=O)C4CC4)n3)c(F)c2)c1` [T125, 2-(2-(cyclopropanesulfonamido)thiazol-4-yl)-N-(4-(5-ethoxypyridin-3-yl)-2-fluorophenyl)-2-methylpropanamide], the pIC50 is above 7.00. Turning to `CC(C)(C(=O)Nc1ccc(-c2cncc(CO)c2)cc1)c1csc(NS(=O)(=O)C2CC2)n1` [T241, 2-(2-(cyclopropanesulfonamido)thiazol-4-yl)-N-(4-(5-(hydroxymethyl)pyridin-3-yl)phenyl)-2-methylpropanamide], the pIC50 is 6.00 to 7.00. Still for that read-out and setting: the same measure for `CC(C)(C(=O)Nc1ccc(-c2cccnc2)c(C#N)c1)c1csc(NS(=O)(=O)C2CC2)n1` [T152, N-(3-cyano-4-(pyridin-3-yl)phenyl)-2-(2-(cyclopropanesulfonamido)thiazol-4-yl)-2-methylpropanamide]: 6.00 to 7.00; for `CC(C)(C(=O)Nc1ncc(-c2cncc(C(F)(F)F)c2)cn1)c1csc(NS(=O)(=O)C2CC2)n1` [T294, 2-(2-(cyclopropanesulfonamido)thiazol-4-yl)-2-methyl-N-(5-(5-(trifluoromethyl)pyridin-3-yl)pyrimidin-2-yl)propanamide]: 6.00 to 7.00. Regarding `Cc1ncccc1-c1ccc(NC(=O)C(C)(C)c2csc(NS(=O)(=O)C3CC3)n2)cc1` [T103, 2-(2-(cyclopropanesulfonamido)thiazol-4-yl)-2-methyl-N-(4-(2-methylpyridin-3-yl)phenyl)propanamide], the pIC50 was 6.00 to 7.00. For `CCOc1cncc(-c2ccc(NC(=O)C(C)(C)c3csc(NS(=O)(=O)CC(C)C)n3)cc2)n1` [T312, N-(4-(6-ethoxypyrazin-2-yl)phenyl)-2-methyl-2-(2-((2-methylpropyl)sulfonamido)thiazol-4-yl)propanamide], the pIC50 was 6.00 to 7.00. Take `COc1cncc(-c2ccc(NC(=O)C(OC)c3csc(NS(=O)(=O)C4CC4)n3)cc2)n1` (single isomer, unassigned) [T107, 2-(2-(cyclopropanesulfonamido)thiazol-4-yl)-2-methoxy-N-(4-(6-methoxypyrazin-2-yl)phenyl)acetamide]: the pIC50 is above 7.00. Turning to `CCOc1cncc(-c2ccc(NC(=O)C(C)(C)c3csc(NS(C)(=O)=O)n3)cc2)n1` [T434, N-(4-(6-ethoxypyrazin-2-yl)phenyl)-2-methyl-2-(2-(methylsulfonamido)thiazol-4-yl)propanamide], the pIC50 was above 7.00. Take `COc1cc(OC)cc(-c2ccc(NC(=O)C(C)(C)c3csc(NS(=O)(=O)C4CC4)n3)nc2)c1` [T234, 2-(2-(cyclopropanesulfonamido)thiazol-4-yl)-N-(5-(3,5-dimethoxyphenyl)pyridin-2-yl)-2-methylpropanamide]: the pIC50 was 5.00 to 6.00. With `COc1cncc(-c2ccc(NC(=O)C(C)(C)c3csc(NS(=O)(=O)C4CC4)n3)c(F)c2)n1` [T275, 2-(2-(cyclopropanesulfonamido)thiazol-4-yl)-N-(2-fluoro-4-(6-methoxypyrazin-2-yl)phenyl)-2-methylpropanamide], the pIC50 is above 7.00. Regarding `CC(C)(C(=O)Nc1ccc(-c2cccnc2)cc1)c1csc(NS(=O)(=O)C(C)(C)C)n1` [T303, 2-(2-((1,1-dimethylethyl)sulfonamido)thiazol-4-yl)-2-methyl-N-(4-(pyridin-3-yl)phenyl)propanamide], the pIC50 was 5.00 to 6.00. The same measure, in the same setting: with `CC(C)(C(=O)Nc1ccc(-c2cccnc2)cc1)c1csc(NS(=O)(=O)C2CCC2)n1` [T306, 2-(2-(cyclobutanesulfonamido)thiazol-4-yl)-2-methyl-N-(4-(pyridin-3-yl)phenyl)propanamide] the figure was 6.00 to 7.00. Consider `CC(C)(C(=O)Nc1ccc(-c2cnccc2C(F)(F)F)cc1)c1csc(NS(=O)(=O)C2CC2)n1` [T255, 2-(2-(cyclopropanesulfonamido)thiazol-4-yl)-2-methyl-N-(4-(4-(trifluoromethyl)pyridin-3-yl)phenyl)propanamide], for which the pIC50 is 5.00 to 6.00.

As to `Cc1cc(NC(=O)C(C)(C)c2csc(NS(=O)(=O)C3CC3)n2)ccc1-c1cncc(Cl)c1` [T288, N-(4-(5-chloropyridin-3-yl)-3-methylphenyl)-2-(2-(cyclopropanesulfonamido)thiazol-4-yl)-2-methylpropanamide], the pIC50 was 6.00 to 7.00. As for `CC(C)(C(=O)Nc1ccc(-c2cncc(C(F)(F)F)c2)cc1F)c1csc(NS(=O)(=O)CC2CC2)n1` [T427, 2-(2-((cyclopropylmethyl)sulfonamido)thiazol-4-yl)-N-(2-fluoro-4-(5-(trifluoromethyl)pyridin-3-yl)phenyl)-2-methylpropanamide], the pIC50 is 6.00 to 7.00.

Regarding `COc1ccnc(-c2ccc(NC(=O)C(C)(C)c3csc(NS(=O)(=O)C4CC4)n3)cc2)c1` [T271, 2-(2-(cyclopropanesulfonamido)thiazol-4-yl)-N-(4-(4-methoxypyridin-2-yl)phenyl)-2-methylpropanamide], the pIC50 is 5.00 to 6.00.

On to `Cc1cc(-c2cncc(F)c2)ccc1NC(=O)C(C)(C)c1csc(NS(=O)(=O)C2CC2)n1` [T287, 2-(2-(cyclopropanesulfonamido)thiazol-4-yl)-N-(4-(5-fluoropyridin-3-yl)-2-methylphenyl)-2-methylpropanamide], for which the pIC50 is above 7.00. Consider `CC(C)S(=O)(=O)Nc1nc(C(C)(C)C(=O)Nc2ccc(-c3cccnc3)cc2)cs1` [T297, 2-methyl-2-(2-((1-methylethyl)sulfonamido)thiazol-4-yl)-N-(4-(pyridin-3-yl)phenyl)propanamide], for which the pIC50 was 5.00 to 6.00. As for `CCCOc1cncc(-c2ccc(NC(=O)C(C)(C)c3csc(NS(=O)(=O)C4CC4)n3)nc2)n1` [T38, 2-(2-(cyclopropanesulfonamido)thiazol-4-yl)-2-methyl-N-(5-(6-propoxypyrazin-2-yl)pyridin-2-yl)propanamide], the pIC50 was above 7.00.

Turning to `O=C(Cc1csc(NS(=O)(=O)C2CC2)n1)Nc1ccc(-c2cccnc2)cn1` [T65, N-([3,3′-bipyridin]-6-yl)-2-(2-(cyclopropanesulfonamido)thiazol-4-yl)acetamide], the pIC50 is 6.00 to 7.00. In the case of `CC(C)(C(=O)Nc1ncc(-c2cccnc2)cn1)c1csc(NS(=O)(=O)C2CC2)n1` [T37, 2-(2-(cyclopropanesulfonamido)thiazol-4-yl)-2-methyl-N-(5-(pyridin-3-yl)pyrimidin-2-yl)propanamide], the pIC50 is 6.00 to 7.00. On to `Cc1cncc(-c2ccc(NC(=O)C(C)(C)c3csc(NS(=O)(=O)C4CC4)n3)nc2)c1` [T249, 2-(2-(cyclopropanesulfonamido)thiazol-4-yl)-2-methyl-N-(5′-methyl-[3,3′-bipyridin]-6-yl)propanamide], for which the pIC50 was above 7.00. `CN(C(=O)C(C)(C)c1csc(NS(=O)(=O)C2CC2)n1)c1ccc(-c2cncc(C#N)c2)cc1` [T309, N-(4-(5-cyanopyridin-3-yl)phenyl)-2-(2-(cyclopropanesulfonamido)thiazol-4-yl)-N,2-dimethylpropanamide]: the pIC50 was 5.00 to 6.00. Consider `CC(C)(C(=O)Nc1ccc(-c2cnccn2)c(C#N)c1)c1csc(NS(=O)(=O)C2CC2)n1` [T34, N-(3-cyano-4-(pyrazin-2-yl)phenyl)-2-(2-(cyclopropanesulfonamido)thiazol-4-yl)-2-methylpropanamide], for which the pIC50 was 6.00 to 7.00. Same read-out and setting: with `COc1cncc(-c2ccc(NC(=O)C(C)(C)c3csc(NS(=O)(=O)C4CC4)n3)c(OC)c2)c1` [T50, 2-(2-(cyclopropanesulfonamido)thiazol-4-yl)-N-(2-methoxy-4-(5-methoxypyridin-3-yl)phenyl)-2-methylpropanamide] the figure was above 7.00.

Still in this assay, the particulars now being: Table 12, ADP-Glo Max assay; read-out: CTPS1 (Human CTPS1 Enzyme Inhibition data grouped by potency range).
As to `CCOc1cncc(-c2ccc(NC(=O)C3(c4ccnc(NS(=O)(=O)C5CC5)n4)CCC(N4CCN(C)CC4)CC3)nc2)n1` (stereo not drawn) [P311], the pIC50 was 6.00 to 7.00. Turning to `CCOc1cncc(-c2ccc(NC(=O)C3(c4ccnc(NS(=O)(=O)C5CC5)n4)CCN(C(=O)COC)CC3)nc2)n1` [P288], the pIC50 was above 7.00.
